Laboratory results taken from patent US20220354911A1, “TREATMENT OF TUMORS BY A COMBINATION OF AN ONCOLYTIC ADENOVIRUS, A CDK4/6 INHIBITOR AND A FURTHER THERAPEUTICALLY ACTIVE AGENT” (KLINIKUM RECHTS DER ISAR DER TECHNISCHEN UNIVERSITÄT MÜNCHEN, priority 2019, published 2022).

Legend:
dl703 = experiment: E1A-independent viral DNA replication of dl703 (fiber qPCR); assay type: cell-based, Mastadenovirus, Type C, Serotype 5; conditions: UMUC cells, 10 μM Lee, 50 MOI dl703, 48 hours post infection
Experimental: To investigate the differences in replication of dl703 (Mantwill et al. 2013, Journal of Translational Medicine, 11, 216) under different treatment conditions, DNA-replication analysis was performed. 100,000 UMUC cells were seeded in 6-well plates and grown in DMEM medium containing 10% FCS in 5% CO2 conditions at 37° C. 24 hours post seeding cells were treated for 24 hours with 10 μM Lee (Ribociclib), 1 μM CI-1040, 10 μM Nutlin-3a and 10 μM Roscovertine and again after infection adding an appropriate amount of inhibitors to the medium. Infection with 50 MOI dl703 (Mastadenovirus, Type C, Serotype 5 with a 3.2 kb sized deletion in E1 region) took place 24 hours post treatment. After 4 and 48 hours post infection DNA were isolated and qPCR was performed using specific primers for the viral fiber gene. Fiber fwd. 5′-[…]-3′ (SEQ ID NO: 17); Fiber rev. 5′-[…]-3′ (SEQ ID NO: 18).

[1] = system: U87 cells, LN229 cells or T98G cells; experiment: SRB cell survival in glioblastoma cells, XVir-N-31, JQ1 and LEE011; assay type: cell-based; conditions: all three glioblastoma cell lines
Experimental: 2×10^4 cells (U87 cells, LN229 cells or T98G cells) were seeded in 12 well plates in DMEM medium and inhibitor treated at the next day. 48 hours post seeding the cells were infected with XVir-N-31. After 4 days the cells were fixated using 10% TCA. The plates were stained using a 0.1% SRB solution. The surplus was removed and the plates were washed with 1% acetic acid. After removing the acetic acid, the plates were air dried overnight. The SRB was solved in 1 ml of a 10 mM Tris Base solution and a 1:10 dilution was measured using a photometer at 560 nm.

UMUC3 cells = experiment: Cell cycle analysis (flow cytometry) of UMUC3 cells; assay type: cell-based, human; conditions: UMUC3, 48 hours; Roscovitine 10 μM, CI-1040 1 μM, Nutlin-3a 10 μM, LEE011 10 μM; 10 MOI dl703
Experimental: FIG. 10 is a bar diagram showing cell cycle distribution in UMUC3 cells, measured 48 hours post treatment, whereby the concentrations of the […] inhibitors was as follows: Roscovitine: 10 μM, CI-1040: 1 μM, Nutlin-3a: 10 μM, and LEE011: 10 μM.
For cell cycle analysis cells were seeded in 6 well plates (2.5×10E4 c/well). 8 hours before infection with dl703, cells were treated with indicated concentration of cell cycle inhibitors. After infection with 10 MOI dl703 cells were again treated for 48 hours. Untreated cells and dl703 infected cells only, served as control. 48h post infection cells were harvest by trypsinization and fixed with 80% ethanol while vortexing. To investigate the cell cycle status, fixed cells were centrifuged 5 min at RT and 300 g and ethanol was aspirated. Cells were resuspended and washed with 1% BSA-PBS (Bovine Serum Albumin) and again centrifuged. Cells were stained with EDU and cell cycle analysis were performed using the Click-iT™ Plus EdU Flow Cytometry Assay Kits, Catalog nos. C10632 from Thermo Fischer. In addition, after 3× times washing with 1% BSA/PBS cells were stained with PI (Propidium Iodine, 50 μg/ml). Measurement was directly performed after staining with a FACScalibur Flow Cytometry System. Data was analyzed with FlowJo software.

LN229 cells = experiment: Western blot of XVir-N-31 infected LN229 cells, LEE011 and JQ1; assay type: cell-based
Experimental: 2.5×10^5 LN229 cells were seeded in 10 cm plates in DMEM medium. The following day the cells were treated with 500 nM LEE011 and 200 nM JQ1 or a combination of both. At the next morning the cells were infected with XVir-N-31 at 20 MOI. One hour after infection DMEM Medium containing the inhibitors was added on the cells. After each time point (24, 48, 72 hours) the cells were put on ice, washed twice with ice-cold PBS and 300 μl of SDS Protein Lysis Buffer was added. The cells were transferred to reaction tubes and the DNA sheared with a syringe and a needle and the supernatant transferred for further use after centrifugation. The protein concentration was measured with a BCA assay and samples with 4× Lämmli:DTT 6:1 and a concertation of 20 μg were produced and transferred to a 10% SDS gel. The gel electrophoresis started at 90V and was increased to 150V after the ladder started to separate. The proteins on the gel were blotted to a membrane for 2 hours at 100V and blocked in 5% milk in TBS-T for 1 hour at RT. After washing in TBS-T, the first antibody was added according to the manufacturer's information over night at 4° C. The used antibodies were directed to GAPDH, E1A, DBP, E2F1, Rb, pRb for all time points, and caspase 3 and the full length and cleaved version of PARP additionally for the 72 hours samples. The next day, the washing was repeated and the secondary antibody added for 1 hour at RT. Following the washing, ECL was used to image the chemiluminescence by the ChemiDoc™ MP Imaging System.

Rb, phRB and E2F1 = experiment: Western blot of UMUC cells treated with cell cycle inhibitors; assay type: cell-based, human; conditions: 24 hours post-treatment, LEE-011 at 10 μM, MI-1040 at 1 μM
Experimental: Western Blot analysis of UMUC cells treated with indicated concentrations of CI-1040, Roscovitine, Nutlin-3a and LEE011 (Ribociclib). 1×10^6 cells were seeded in 10 cm dishes. 24 hours post-treatment proteins were isolated using 1% SDS buffer, to achieve the disruption of the nuclear membrane. All samples were drawn up several times into a syringe to disrupt the DNA and subsequently centrifuged at 30000 rpm at 4° C. for 30 minutes. The supernatant was transferred to a new reaction tube and directly used for further steps or stored at −80° C. To separate the proteins a sodium dodecyl sulfate polyacrylamide gel electrophoresis was performed. By means of electrophoresis for approximately two hours at 100V at 4° C., 40 μg of total proteins were loaded and probed against specific indicated antibodies.

[2] = LN229, with XVir-N-31, 48 hours post infection
[3] = LN229, with XVir-N-31, 72 hours post infection

CN(C)C(=O)c1cc2cnc(Nc3ccc(N4CCNCC4)cn3)nc2n1C1CCCC1 [LEE011]
increase of viral DNA replication of dl703 (dl703): ~100 fold | cell killing on addition of LEE011 to JQ1 and XVir-N-31 [1]: increased even further | cell cycle distribution (UMUC3 cells): clear G1-arrest | viral proteins E1A and DBP (LN229 cells; LN229, XVir-N-31 MOI 20, 500 nM LEE011 or/and 200 nM JQ-1, 24 hours post infection): increased | viral proteins E1A and DBP (LN229 cells; LN229, XVir-N-31 MOI 20, 500 nM LEE011 or/and 200 nM JQ-1, 48 hours post infection): increased | viral proteins E1A and DBP (LN229 cells; LN229, XVir-N-31 MOI 20, 500 nM LEE011 or/and 200 nM JQ-1, 72 hours post infection): increased | cellular proteins Rb and pRb (LN229 cells; LN229, with XVir-N-31, 24 hours post infection): remained inhibited | E2F-1 (LN229 cells; [2]): stabilized | cellular proteins Rb and pRb (LN229 cells; [2]): remained inhibited | E2F1 (LN229 cells; [3]): enhanced | cellular protein Rb (LN229 cells; [3]): decreased | presence of cleaved PARP (LN229 cells; XVir-N-31 infected LN229 cells, 72 hours post infection): increased | Rb, phRB and E2F1 expression (Rb, phRB and E2F1): induced inhibition
